Measured values: patent publication US20240327361A1, “RADIOLABELED COMPOSITIONS AND METHODS OF USE THEREOF” (The Research Foundation for the State University of New York, priority 2021, published 2024)

Key:
[1] = system: Class-I HDAC; assay: Cell-based deacetylase assay in HT-29 cells, class-I/IIb selective substrate Boc-Lys-Ac; conditions: whole-cell assay, 200 μM Boc-Lys-Ac (class-I/IIb selective substrate), 3 h at 37° C.
Experimental: (§1) Cell-based deacetylase assay. The cell-based assay was conducted similar to the previous work (Lobera M 2013; Luckhurst C A 2019) Briefly, compounds were diluted in 5 uL DMSO (11-point concentration curve, 5% final DMSO) and were added to 96 wells with positive (5 μM Trichostatin A (TSA)) and negative control (5 uL DMSO) wells. HT-29 cells (obtained from ATCC) with the addition of either 100 μM Boc-Lys-TFA (class-IIa selective substrate) or 200 μM Boc-Lys-Ac (class-I/IIb selective substrate) were plated into 96 well plates at 200,000 cells/well in 45 uL cellular assay buffer (RPMI without phenol red, 0.1% Fetal Bovine Serum) and were incubated for 3 h at 37° C. The deacetylation achieved by the addition of 50 uL HDAC developer solution (2.5 mg/ml trypsin in DMEM without Fetal Bovine Serum and 10% tween 80) for a further 1 h to sensitize the substrate and to lyse the cells. Fluorescent counts were read with microplate reader at an excitation wavelength of 360 nm and detection of emitted light of 460 nm.

[2] = system: Class-lla HDAC; assay: Cell-based deacetylase assay in HT-29 cells, class-IIa selective substrate Boc-Lys-TFA; conditions: whole-cell assay, 100 μM Boc-Lys-TFA (class-IIa selective substrate), 3 h at 37° C.
Experimental: as §1, with “The cell-based assay was conducted similar to the previous work (Lobera M 2013; Luckhurst C A 2019) Briefly, compounds were diluted in 5 uL DMSO (11-point concentration curve, 5% final DMSO) and were added to 96 wells with positive (5 μM Trichostatin A (TSA)) and negative control (5 uL DMSO) wells.” left out

[3] = system: class-lla HDACs; assay: In vivo microPET imaging of healthy rats (biodistribution, self-blocking with cold TMP195); set-up: species or system Sprague Dawley rats; conditions: for biodistribution / uptake in brain regions: rat brain PET
Experimental: Sprague Dawley rats (200-250 g, N=3,) were anesthetized with 3% isoflurane in oxygen and maintained at 2% isoflurane in oxygen throughout the imaging studies. Anesthetized rat was placed in the uPET (Siemens, Knoxville, TN) with the skull positioned in the center of the field of view. The tracer (500-700 μCi/animal) was administered intravenously into each Rat (n=3 per group) in a total volume 0.5-1.0 ml solution. Dynamic PET images were obtained over 60 minutes. Images were reconstructed with attenuation correction using an ordered subset expectation maximization (OSEM2D) algorithm with 16 subsets and 4 iterations.
Dynamic PET images were analyzed with Inveon Research Workplace 4.0 (Siemens, Knoxville, TN) and AMIDE software using manual segmentation of regions of interest (ROI), were drawn over ROI on the decay-corrected coronal images. The radioactivity accumulation (tracer uptake) within the ROI were obtained as percentage of the injected dose (ID) per gram of tissue (% ID/g). The time-activity curve (TAC) was generated from the region of interest (ROI) by plotting the radioactivity/cc vs time.
(§2) Anesthetized Sprague Dawley rats (200-250 g, N=6) were placed in the Inveon uPET (Siemens, Knoxville, TN) in the supine position with the skull positioned in the center of the field of view. [^18F]-NT160 was formulated in ethanol:polysorbate 80:saline (10:10:80%) and it was stable in this formulation at 37° C. at least for 4 hours. [^18F]-NT160 (18.5-25.9 MBq/animal) was administered via the tail-vein injection in a total volume 0.5-1.0 ml. Dynamic PET images were obtained over 60 minutes followed by CT imaging (15 min scan). Images were reconstructed with attenuation correction using an ordered subset expectation maximization (OSEM2D) algorithm with 16 subsets and 4 iterations. PET image analysis was performed using the AMIDE software by using manual segmentation of regions of interest (ROI), including: whole brain, cortex, hippocampus, thalamus, cerebellum, and brain stem. Rat Brain Atlas was used for alignment and identification of specific anatomical markers of the brain. The time-activity curve (TAC) was generated from the region of interest (ROI) by plotting the radioactivity/cc vs time. Levels of accumulation of the radiotracer in tissues were expressed as standard uptake values (SUV) that were calculated for the regions of interest (ROI) using the AMIDE software. The SUV is defined as the ratio of the tissue radioactivity concentration C (e.g. expressed as Bq/g tissue) at given time point post injection T, and the injected dose (e.g. in Bq, decay-corrected to the same time T), and normalized by the body weight in grams. GraphPad Prism (Graph Pad Software La Jolla, CA) was used for image data analysis. [^18F]-NT2-160 was also prepared by the same or similar procedure.

[4] = Stability of the tracer in its injection formulation; type: physicochemical; conditions: ethanol:polysorbate 80:saline (10:10:80%), 37° C.
Experimental: as §2, with “PET image analysis was performed using the AMIDE software by using manual segmentation of regions of interest (ROI), including: whole brain, cortex, hippocampus, thalamus, cerebellum, and brain stem. Rat Brain Atlas was used for alignment and identification of specific anatomical markers of the brain.” left out, “GraphPad Prism (Graph Pad Software La Jolla, CA) was used for image data analysis. [^18F]-NT2-160 was also prepared by the same or similar procedure.” left out

[5] = Partition coefficient, octanol/PBS shake flask method; type: physicochemical; conditions: phosphate buffer pH 7.4
Experimental: The log P was determined by partitioning the tracer between octanol and phosphate buffer at pH 7.4 and measuring the concentration of the tracer in each layer. The radioactivity of each layer is counted using gamma-counter. The partition coefficient (P) is calculated as [radioactivity (cpm/ml) in 1-octanol)]/[(radioactivity (cpm/ml) in phosphate buffer pH 7.4].

[6] = rat, co-administered TMP195 2 mg/kg

Structure (SMILES)	IC50 [1] [µM]	IC50 [2] [µM]	further results
O=C(NC1CCN(c2ccccc2)C1)c1ccc(-c2noc(C(F)(F)F)n2)cc1 (stereo not shown) [NT2-174]	> 50	> 20	
C[C@H](CN(C)Cc1ccc(F)cc1)NC(=O)c1ccc(-c2noc(C(F)(F)F)n2)cc1 [NT3-11D]	> 15	0.059 ± 0.016	
O=C(NC1CCN(Cc2ccc(I)cc2)C1)c1ccc(-c2noc(C(F)(F)F)n2)cc1 (stereo not shown) [NT3-39]	> 50	0.295	
O=C(NC1CCN(Cc2ccc(F)cc2)C1)c1ccc(-c2noc(C(F)(F)F)n2)cc1 (stereo not shown) [NT3-40]	> 20	0.142	
CN1CCC(NC(=O)c2ccc(-c3noc(C(F)(F)F)n3)cc2F)C1 (stereo not shown) [NT3-75]	> 3	0.072	
C[C@H](CN(C)Cc1ccccc1)NC(=O)c1ccc(-c2noc(C(F)(F)F)n2)cc1F [NT3-76]	> 5	0.032	
O=C(NC1CCN(Cc2ccccc2F)C1)c1ccc(-c2noc(C(F)(F)F)n2)cc1F (stereo not shown) [NT3-77A]	> 10	0.179	
O=C(NC1CCN(Cc2cccc(F)c2)C1)c1ccc(-c2noc(C(F)(F)F)n2)cc1F (stereo not shown) [NT3-77B]	> 10	0.195	
O=C(NC1CCN(Cc2ccc(F)cc2)C1)c1ccc(-c2noc(C(F)(F)F)n2)cc1F (stereo not shown) [NT3-77C]	> 10	0.173	
O=C(NC1CCN(Cc2ccccc2)C1)c1ccc(-c2noc(C(F)(F)F)n2)cc1F (stereo not shown) [NT3-77]	> 10	0.152	
CCN1CCC(NC(=O)c2ccc(-c3noc(C(F)(F)F)n3)cc2F)C1 (stereo not shown) [NT3-81]	> 5	0.137	
CCN1CCC(NC(=O)c2ccc(-c3noc(C(F)(F)F)n3)cc2)C1 (stereo not shown) [NT3-83]	> 9	0.091	
CCN1CC[C@@H](NC(=O)c2ccc(-c3noc(C(F)(F)Cl)n3)cc2)C1 [NT3-92]	> 50	> 20	
O=C(NC1CCN(CCc2ccccc2F)C1)c1ccc(-c2noc(C(F)(F)F)n2)cc1 (stereo not shown) [NT3-102C]	> 50	> 10	
O=C(NC1CCN(CCF)C1)c1ccc(-c2noc(C(F)(F)F)n2)cc1 (stereo not shown) [NT3-123]	> 50	> 10	
O=C(NC1CCN(Cc2ccccc2I)C1)c1ccc(-c2noc(C(F)(F)F)n2)cc1 (stereo not shown) [NT3-127B]	> 50	1	
O=C(NC1CCN(Cc2ccccc2F)C1)c1ccc(-c2noc(C(F)(F)F)n2)cc1 (stereo not shown) [NT3-132B]	> 50	0.3	
O=C(NC1CCN(Cc2ccccc2)C1)c1ccc(-c2noc(C(F)(F)[18F])n2)cc1 (stereo not shown) [[^18F]-NT2-160]			biodistribution / uptake in brain regions [3]: heterogenous
C[C@H](CN(C)Cc1ccccc1)NC(=O)c1ccc(-c2noc(C(F)(F)[18F])n2)cc1 [[^18F]-NT160]			stable in formulation [4]: ≥ 4 h
CC(C)(CNC(=O)c1cccc(-c2noc(C(F)(F)[18F])n2)c1)c1coc(-c2ccccc2)n1 [^18F-NT57]			tracer uptake in the harderian gland ([3]; rat): neither specific nor unique; biodistribution / uptake in brain regions [3]: heterogeneous; uptake in the wrist ([3]; rat, baseline and blocking with TMP195): intense and blockable; uptake in the brown fat adipose tissues (BATs) ([3]; rat, cervical and interscapular BAT, 60 min): intense and increased uptake; brain uptake with cold dose of TMP195 vs baseline (self-blocking) [3, 6]: reduced; tracer uptake in BATs with cold dose of TMP195 (blocking) [3, 6]: reduced; accumulation in the liver ([3]; rat, dynamic PET over 60 min): accumulated heavily; clearance from most normal tissues (heart, brain, muscle) ([3]; rat, dynamic PET over 60 min): rapid clearance; peak uptake in the brain ([3]; rat, intravenous tracer, dynamic PET over 60 min): ~1 % ID/g; tracer uptake in the muscle ([3]; rat, not affected by blocking): low and nonspecific; logD [5]: > 6

Continued, in another order:

IC50 [1] [µM]	IC50 [2] [µM]	Structure (SMILES)	further results
> 15	0.768 ± 0.19	CC(C)(NCc1ccccc1)C(=O)CNC(=O)c1ccc(-c2noc(C(F)(F)F)n2)cc1 [NT2-44]	
> 15	0.953	C[C@@H](NC(=O)c1ccc(-c2noc(C(F)(F)F)n2)cc1)C(=O)NCc1ccccc1 [NT2-67]	
> 15	0.233 ± 0.11	COC[C@@H](NC(=O)c1ccc(-c2noc(C(F)(F)F)n2)cc1)C(=O)NCc1ccc(F)cc1 [NT2-156]	
> 20		O=C(NC1CCN(Cc2ccccc2)C1)c1ccc(-c2noc(C(F)(F)F)n2)cc1 (stereo not shown) [NT2-160]	
> 50	> 10	O=C(NC1CCCN(Cc2ccccc2)C1)c1ccc(-c2noc(C(F)(F)F)n2)cc1 (stereo not shown) [NT2-190]	
> 50		CC(CN(C)Cc1ccccc1)NC(=O)c1ccc(-c2noc(C(F)(F)F)n2)cc1 (stereo not shown) [NT2-191]	
> 25	0.005	C[C@@H](CN1CC[C@H](c2ccccc2)C1)NC(=O)c1ccc(-c2noc(C(F)(F)F)n2)cc1 [NT3-16D]	
> 50	> 1	C[C@H](NC(=O)c1ccc(-c2noc(C(F)(F)F)n2)cc1)C(=O)N1CC[C@H](c2ccccc2)C1 [NT3-52B]	
> 2	> 2	C[C@H](CN(C)Cc1ccccc1)NC(=O)c1ccc(-c2noc(C(F)(F)Cl)n2)cc1 [NT3-89B]	
> 50	> 10	O=C(NC1CCN(CCc2ccccc2)C1)c1ccc(-c2noc(C(F)(F)F)n2)cc1 (stereo not shown) [NT3-106C]	
> 50	> 50	CN(Cc1ccccc1)C(=O)C(C)(C)CNC(=O)c1cccc(-c2noc(C(F)(F)F)n2)c1 [NT3-118]	
> 15	0.933 ± 0.26	CN(Cc1ccccc1)C(=O)C(C)(C)CNC(=O)c1ccc(-c2noc(C(F)(F)F)n2)cc1 [NT3-119]	
> 15	> 5	CC(C)(CNC(=O)c1ccc(-c2noc(C(F)(F)F)n2)cc1)c1coc(-c2ccccc2)n1 [NT-134]	
> 15	0.905 ± 0.22	CN(Cc1ccccc1)C(=O)CCNC(=O)c1ccc(-c2noc(C(F)(F)F)n2)cc1 [NT-174]	
> 50	> 50	CN(Cc1ccccc1)C(=O)CCNC(=O)c1cccc(-c2noc(C(F)(F)F)n2)c1 [NT-175]	
> 15	0.537 ± 0.15	COC[C@@H](NC(=O)c1ccc(-c2noc(C(F)(F)F)n2)cc1)C(=O)NCc1ccccc1 [NT-176]	
> 15	1.71 ± 0.33	COC[C@@H](NC(=O)c1ccc(-c2noc(C(F)(F)F)n2)nc1)C(=O)NCc1ccccc1 [NT-192]	
